Source: patent US20110218211A1, “AZAINDOLE INHIBITORS OF IAP” (Genentech, Inc., priority 2008, published 2011)

Legend:
[1] = target: T1, MLXBIR3SG (Homo sapiens, UniProt Q96CA5, S150G); assay: Fluorescence polarization peptide binding assay, MLXBIR3SG; conditions: 0.06 μM MLXBIR3SG, 5 nM AVP-diPhe-FAM probe; for Ki: Ki determined from IC50
T1 sequence (Q96CA5 with tags, fused parts or gaps S150G): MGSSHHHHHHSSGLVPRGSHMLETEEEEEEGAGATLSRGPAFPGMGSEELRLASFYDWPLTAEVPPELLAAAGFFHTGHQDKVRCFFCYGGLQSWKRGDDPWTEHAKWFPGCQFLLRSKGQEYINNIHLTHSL
Method: In the following experiments was used a chimeric BIR domain referred to as MLXBIR3SG in which 11 of 110 residues correspond to those found in XIAP-BIR3, while the remainder correspond to ML-IAP-BIR. […] The improved caspase-9 inhibition of the chimeric BIR domain MLXBIR3SG has been correlated with increased inhibition of doxorubicin-induced apoptosis when transfected into MCF7 cells.
(§1) Polarization experiments were performed on an Analyst HT 96-384 (Molecular Devices Corp.) according to the procedure of Keating, S. M., Marsters, J, Beresini, M., Ladner, C., Zioncheck, K., Clark, K., Arellano, F., and Bodary, S. (2000) in Proceedings of SPIE: In Vitro Diagnostic Instrumentation (Cohn, G. E., Ed.) pp 128-137, Bellingham, Wash. Initial polarization experiments were performed in order to determine dissociation constants (Kd) between IAP protein BIR domains and fluorescent probes. Samples for fluorescence polarization affinity measurements were prepared by addition of serial dilutions of MLXBIR3SG, XIAP-BIR3, cIAP1XBIR3, or cIAP2XBIR3 in polarization buffer (50 mM Tris [pH 7.2], 120 mM NaCl, 1% bovine globulins, 5 mM DTT and 0.05% octylglucoside) to 5 nM 5-carboxyflourescein (5-FAM)-conjugated AVP-diphenylalanine-AKK (AVP-diPhe-FAM). The resulting reactions were incubated for 30 minutes at room temperature in 384-well black HE96 plates (Molecular Devices Corp.; Sunnyvale, Calif.) and fluorescence values were measured using standard filters for the fluorescein fluorophore (λex=485 nm, λem=530 nm). Fluorescence polarization values were plotted as a function of the protein concentration and the 50% effective concentration (EC50) values were obtained by fitting the data to a four-parameter equation using KaleidaGraph software (Synergy Software; Reading, Pa.). The apparent Kd values were determined from the EC50 values.
(§2) Inhibition constants (Ki) for the antagonists were determined by addition of 0.06 μM MLXBIR3SG, 0.5 μM XIAP-BIR3, 0.2 μM cIAP1XBIR3 or 0.4 μM cIAP2XBIR3 to wells containing 1:3 serial dilutions of the antagonists, and 5 nM AVP-diPhe-FAM probe in the polarization buffer. After a 10 to 30-minute incubation period, the fluorescence value of each sample was measured. Fluorescence polarization values were plotted as a function of the antagonist concentration, and the 50% inhibitory concentration (IC50) values were determined by fitting the data to a four-parameter equation using KaleidaGraph software. The Ki values for the antagonists were determined from the IC50 values (Keating et al. 2000).

[2] = target: T2, cIAP1XBIR3 (Homo sapiens, UniProt Q13490, C308S/R332G/S292A); assay: Fluorescence polarization peptide binding assay, cIAP1XBIR3; conditions: 0.2 μM cIAP1XBIR3, 5 nM AVP-diPhe-FAM probe; for Ki: Ki determined from IC50
T2 construct: made in house
Method: (§3) Similar cIAP1-BIR3/XIAP-BIR3 and cIAP2-BIR3/XIAP-BIR3 chimeric proteins, cIAP1XBIR3 and cIAP2XBIR3, respectively, were engineered, expressed, and purified in a similar fashion to MLXBIR3SG. As with MLXBIR3SG, the amino acid sequences of these BIR domains retain the native cIAP peptide-binding sites.
as §1, §2

[3] = target: T3, cIAP2XBIR3 (Homo sapiens, UniProt Q13489, C294S/R318G/S278A); assay: Fluorescence polarization peptide binding assay, cIAP2XBIR3; conditions: 0.4 μM cIAP2XBIR3, 5 nM AVP-diPhe-FAM probe
T3 construct: made in house
Method: as §3
Polarization experiments were performed on an Analyst HT 96-384 (Molecular Devices Corp.) according to the procedure of Keating, S. M., Marsters, J, Beresini, M., Ladner, C., Zioncheck, K., Clark, K., Arellano, F., and Bodary, S. (2000) in Proceedings of SPIE: In Vitro Diagnostic Instrumentation (Cohn, G. E., Ed.) pp 128-137, Bellingham, Wash. Initial polarization experiments were performed in order to determine dissociation constants (Kd) between IAP protein BIR domains and fluorescent probes. […] The resulting reactions were incubated for 30 minutes at room temperature in 384-well black HE96 plates (Molecular Devices Corp.; Sunnyvale, Calif.) and fluorescence values were measured using standard filters for the fluorescein fluorophore (λex=485 nm, λem=530 nm). […] The apparent Kd values were determined from the EC50 values. […]

[4] = target: T4, XIAP-BIR3 (Homo sapiens, UniProt P98170); assay: Fluorescence polarization peptide binding assay, XIAP-BIR3; conditions: 0.5 μM XIAP-BIR3, 5 nM AVP-diPhe-FAM probe; for Ki: Ki determined from IC50, read-out: XIAPBIR3 Ki; for IC50: read-out: XIAPBIR3 IC50
T4 construct: serial dilutions of MLXBIR3SG, XIAP-BIR3, cIAP1XBIR3, or cIAP2XBIR3
Method: as §1, §2

T4 sequence (P98170 241-356 limits assumed): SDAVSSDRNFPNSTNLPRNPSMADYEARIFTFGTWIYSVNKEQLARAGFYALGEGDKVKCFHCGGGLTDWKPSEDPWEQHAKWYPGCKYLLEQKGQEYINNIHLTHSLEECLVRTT
T2 sequence (Q13490 with tags, fused parts or gaps S292A/C308S/R332G): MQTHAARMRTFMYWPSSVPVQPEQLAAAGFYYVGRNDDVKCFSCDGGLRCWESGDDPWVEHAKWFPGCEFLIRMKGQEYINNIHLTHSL
T3 sequence (Q13489 with tags, fused parts or gaps S278A/C294S/R318G): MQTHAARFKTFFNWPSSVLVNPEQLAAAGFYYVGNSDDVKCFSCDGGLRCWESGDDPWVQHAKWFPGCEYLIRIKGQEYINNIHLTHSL

Work on CN[C@@H](C)C(=O)N[C@H](C(=O)N1CCC[C@H]1c1cc2ccnc(-c3ccccc3)c2[nH]1)C1CCOCC1 [compound 1] yielded an IC50 [1] of 158 nM, a Ki [1] of 36 nM and an IC50 [2] of 461 nM. It also gave a Ki [2] of 71.3 nM, an IC50 [3] of 502 nM and a Ki ([3]; Ki determined from IC50) of 109 nM. For the same compound, the Ki [4] was 90.5 nM and the IC50 [4] was 508 nM.

For CN[C@@H](C)C(=O)N[C@H](C(=O)N1CCC[C@H]1c1cc2ncnc(-c3ccccc3)c2[nH]1)C1CCCCC1 [compound 3], the IC50 [1] was 131 nM, the Ki [1] was 29.8 nM and the Ki [4] was 79.2 nM. The IC50 [4] was 445 nM.

CN[C@@H](C)C(=O)N[C@H](C(=O)N1CCC[C@H]1c1cc2ncnc(-c3ccccc3)c2[nH]1)C1CCOCC1 [compound 4] gave an IC50 [1] of 156 nM, a Ki [1] of 35.6 nM and a Ki [4] of 76.9 nM. For the same compound, the IC50 [4] was 434 nM.

Compound CN[C@@H](C)C(=O)N[C@H](C(=O)N1CCC[C@H]1c1cc2nc(C)nc(-c3ccccc3)c2[nH]1)C1CCCCC1 [compound 5] has an IC50 [1] of 139 nM, a Ki [1] of 31.7 nM and a Ki [4] of 91.5 nM. It also gave an IC50 [4] of 514 nM.

Work on CN[C@@H](C)C(=O)N[C@H](C(=O)N1CCC[C@H]1c1cc2nc(C)nc(-c3ccccc3)c2[nH]1)C1CCOCC1 [compound 6] yielded an IC50 [1] of 359 nM, a Ki [1] of 81.9 nM and a Ki [4] of 201 nM. The IC50 [4] was 1130 nM.

For CN[C@@H](C)C(=O)N[C@H](C(=O)N1CCC[C@H]1c1cc2ccnc(-c3ccc(F)cc3)c2[nH]1)C1CCOCC1 [compound 7], the IC50 [1] was 113 nM, the Ki [1] was 25.7 nM and the Ki [4] was 85.6 nM. It also gave an IC50 [4] of 481 nM.

CN[C@@H](C)C(=O)N[C@H](C(=O)N1CCC[C@H]1c1cc2nc(C)nc(-c3ccc(F)cc3)c2[nH]1)C1CCOCC1 [compound 8] was tested, and the IC50 [1] was 108 nM, the Ki [1] was 24.6 nM and the Ki [4] was 89 nM. The IC50 [4] was 500 nM.

Compound CN[C@@H](C)C(=O)N[C@H](C(=O)N1CCC[C@H]1c1cc2nc(C)nc(-c3ccc(F)cc3)c2[nH]1)C1CCCCC1 [compound 9] has an IC50 [1] of 62 nM, a Ki [1] of 14.1 nM and a Ki [4] of 64.9 nM. For the same compound, the IC50 [4] was 364 nM.

In the case of CN[C@@H](C)C(=O)N[C@H](C(=O)N1CCC[C@H]1c1cc2ccnc(-c3ccc(F)cc3)c2[nH]1)C1CCCCC1 [compound 10], the IC50 [1] is reported as 99.3 nM, the Ki [1] is reported as 22.6 nM and the Ki [4] is reported as 102 nM. The IC50 [4] was 574 nM.

In the case of CN[C@@H](C)C(=O)N[C@H](C(=O)N1CCC[C@H]1c1cc2ccnc(-c3ccccc3Cl)c2[nH]1)C1CCOCC1 [compound 11], the IC50 [1] is reported as 648 nM, the Ki [1] is reported as 148 nM and the IC50 [2] is reported as 194 nM. The Ki [2] was 30.1 nM, the Ki [4] was 121 nM and the IC50 [4] was 682 nM.

With CN[C@@H](C)C(=O)N[C@H](C(=O)N1CCC[C@H]1c1cc2ccnc(-c3ccccc3)c2[nH]1)c1ccccc1 [compound 12] the IC50 [1] was 144 nM, the Ki [1] was 32.9 nM and the Ki [4] was 64.4 nM.

CN[C@@H](C)C(=O)N[C@H](C(=O)N1CCC[C@H]1c1cc2ccnc(-c3ccccc3)c2[nH]1)C1CCCCC1 [compound 13] showed an IC50 [1] of 91 nM, a Ki [1] of 20.7 nM and a Ki [4] of 63.8 nM.
